Measurements from patent publication US7875617B2, “3,4-dihydro-2-naphthamide derivatives as selective dopamine D3 ligands” (Institut National de la Sante et de la Recherche Medicale …, priority 2005, dated 2011).

Experiments:
[1] = target: T1, human recombinant dopamine D3 receptor (Homo sapiens, UniProt P35462); assay: inhibition of [125I]iodosulpride binding, D3 receptor; conditions: for selectivity ratio, D2 receptor affinity relative to D3 receptor affinity: D2 vs D3, times lower affinity at D2; for Ki: [125I]iodosulpride binding, cells expressing human recombinant receptor, read-out: affinity for the D3 receptor
T1 construct: expressed in transfected cells
Description: (§1) The activity of the derivatives of formula (I) according to the invention was evaluated with respect to cells expressing human recombinant dopamine receptors. The inhibition constants (Ki) were measured by inhibition of [^125I]iodosulpride binding as described by Sokoloff et al. (1992). The degree of stimulation of the D3 receptor was determined by measuring the incorporation of [^3H]-thymidine in NG 108-15 cells expressing the D3 receptor (Pilon et al., 1994; Sautel et al., 1995).

[2] = target: T2, human recombinant dopamine D2 receptor (Homo sapiens, UniProt P14416); assay: inhibition of [125I]iodosulpride binding, D2 receptor; conditions: cells expressing human recombinant receptor, read-out: affinity for the D2 receptor
T2 construct: expressed in transfected cells
Description: as §1

human D3 receptor = target: T3, human D3 receptor (Homo sapiens, UniProt P35462); assay: mitogenesis assay, [3H]thymidine incorporation in NG 108-15 cells expressing the D3 receptor; format: cell-based; conditions: for EC50: read-out: 50% effective concentration (EC50), mitogenesis; for intrinsic activity (efficacy): relative to quinpirole (full agonist, efficacy 1), nafadotride is full antagonist (efficacy 0)
T3 construct: expressed in transfected cells; host or cells: NG 108-15 cells
Description: The activity of the derivatives of formula (I) according to the invention was evaluated with respect to cells expressing human recombinant dopamine receptors.
I-28 activity in vitro towards recombinant D3 receptor has been determined using a validated mitogenesis assay which was performed as follows:
After a 24 h-culture, cells were washed twice with culture medium without fetal calf serum and incubated for 16 hours with drugs in four replicates. Then [^3H]thymidine (1 μCi per well) was added for 2 hours and cells were harvested by vacuum filtration through Whatman GF/C fiber filters using an automated cell harvester (Brandel-Beckman) and rinsed 10 times with 200 μl 50 mM potassium phosphate buffer containing 150 mM NaCl. Radioactivity retained on filters was counted by liquid scintagraphy.

[3] = system: spontaneous locomotor activity of mice; assay: spontaneous locomotor activity during habituation in mice; format: in vivo
Description: (§2) Activity of I-28 in vivo was assessed by using a simple test recently developed (Leriche et al. 2003 and international PCT application WO 2004/084952).
(§3) Male Swiss mice (Charles River, France), weighing 26-28 g, were housed six per cage (25×15×13 cm), on a 12 h/12 h light/dark cycle (lights on at 07:00 a.m.), with food and water freely available. Room temperature ranged from 20° C. to 22° C. and humidity varied between 55% and 65%.
(§4) Dizocilpine (MK-801) [(+)-5-methyl-10,11-dihydro-5H-dibenzo[a,d]cyclohepten-5,10-imine maleate] (Sigma) was dissolved in saline (0.9% NaCl). I-28 was dissolved in a few drops of HCl and distilled water, and the pH of the solution was adjusted to pH 5 using NaOH. The doses of I-28 are expressed as the weight of the base. The compounds were injected i.p. in a volume of 5 ml·kg^−1.
All experiments were conducted between 2.00 p.m. and 6.00 p.m., and the animals were kept in the test room at least 1 hour before recording their activity. The locomotor activity was measured in an actimeter that was composed of eight individual activity cages (30×15×18 cm, with sawdust on the floor) transected by infrared beams (Imetronic, Pessac, France). […]
Mice were injected with either Vehicle (distilled water pH 5) or I-28 (0.1, 0.3, 1 or 3 mg·kg^−1), and their horizontal locomotor activity was measured for 30 minutes (spontaneous locomotor activity). […]

[4] = system: MK-801-induced hyperactivity in mice; assay: MK-801-induced hyperactivity in mice; format: in vivo
Description: as §2, §3, §4
All experiments were conducted between 2.00 p.m. and 6.00 p.m., and the animals were kept in the test room at least 1 hour before recording their activity. The locomotor activity was measured in an actimeter that was composed of eight individual activity cages (30×15×18 cm, with sawdust on the floor) transected by infrared beams (Imetronic, Pessac, France). Counts for forward horizontal activity were incremented each time the animal moved from one-half part of the cage to the other, corresponding to disruption of two crossed parallel beams distant of 14 cm. In time-course studies, counts were summed every 5 minute.
Mice were injected with either Vehicle (distilled water pH 5) or I-28 (0.1, 0.3, 1 or 3 mg·kg^−1), and their horizontal locomotor activity was measured for 30 minutes (spontaneous locomotor activity). They were subsequently treated with saline or MK-801 (0.12 mg·kg^−1) and the activity was measured for 1 hour (MK-801-induced locomotor activity).

[5] = NG 108-15 cells transfected with the human D3 receptor

T3 sequence (P35462 whole entry): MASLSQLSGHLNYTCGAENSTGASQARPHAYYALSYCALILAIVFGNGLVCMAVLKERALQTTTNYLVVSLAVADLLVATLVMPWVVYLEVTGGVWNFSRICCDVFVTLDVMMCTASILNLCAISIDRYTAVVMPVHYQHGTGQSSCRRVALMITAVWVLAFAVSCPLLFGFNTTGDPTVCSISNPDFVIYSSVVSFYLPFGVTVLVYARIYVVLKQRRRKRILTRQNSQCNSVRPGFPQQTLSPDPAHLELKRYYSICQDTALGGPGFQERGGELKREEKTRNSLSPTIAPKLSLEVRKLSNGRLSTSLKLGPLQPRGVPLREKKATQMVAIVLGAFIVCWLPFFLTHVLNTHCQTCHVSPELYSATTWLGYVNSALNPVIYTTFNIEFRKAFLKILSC
T1 sequence (P35462 whole entry): as above
T2 sequence (P14416 whole entry): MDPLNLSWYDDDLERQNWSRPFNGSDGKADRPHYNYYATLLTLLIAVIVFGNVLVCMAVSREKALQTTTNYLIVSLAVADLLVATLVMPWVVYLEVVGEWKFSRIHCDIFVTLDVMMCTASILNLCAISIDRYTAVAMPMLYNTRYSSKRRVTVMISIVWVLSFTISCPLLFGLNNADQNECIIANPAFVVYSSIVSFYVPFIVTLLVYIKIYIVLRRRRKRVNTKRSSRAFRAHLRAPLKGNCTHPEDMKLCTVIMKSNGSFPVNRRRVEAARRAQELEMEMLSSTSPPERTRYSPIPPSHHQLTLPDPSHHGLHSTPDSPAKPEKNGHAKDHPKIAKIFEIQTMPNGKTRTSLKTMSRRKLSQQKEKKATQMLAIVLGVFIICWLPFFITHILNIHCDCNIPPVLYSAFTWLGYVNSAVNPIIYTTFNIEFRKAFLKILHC

Row | SMILES | selectivity ratio, D2 receptor affinity relative to D3 receptor affinity [1] | Ki [1] [nM] | Ki [2] [nM] | EC50 (human D3 receptor; [5]) [nM] | intrinsic activity (efficacy) (human D3 receptor) | maximal response, % of that produced by quinpirole (human D3 receptor; NG 108-15 cells transfected with the human D3 receptor, mean ±SEM) [%] | change of spontaneous activity ([3]; 3.0 mg·kg−1 i.p., P=0.042) [%] | effect on spontaneous locomotor activity during habituation ([3]; i.p., doses below 3.0 mg·kg−1, 30 minutes) | blood-brain barrier passage ([4]; inferred from activity after systemic administration in mice) | inhibition of MK-801-induced hyperactivity ([4]; mice, 0.3 mg·kg−1 i.p., P=0.031) [%] | inhibition of MK-801-induced hyperactivity ([4]; mice, 1.0 mg·kg−1 i.p., P=0.0073) [%] | inhibition of MK-801-induced hyperactivity ([4]; mice, 3.0 mg·kg−1 i.p., P=0.0012) [%] | ED50, inhibition of MK-801-induced hyperactivity ([4]; mice, i.p., MK-801 0.12 mg·kg−1)
1 | O=C(NCCCCN1CCN(c2cccc(O)c2)CC1)c1ccc2ccccc2c1 [reference compound] | 59 | 0.74 | 44 |  |  |  |  |  |  |  |  |  | 
2 | O=C(NCCCCN1CCN(c2cccc(O)c2)CC1)C1=Cc2ccccc2CC1 [Example 4, N-[4-[(3-hydroxyphenyl)piperazine-1-yl]butyl]-3,4-dihydronaphtalene-2-carboxamide] | 160 | 0.71 |  | 2.2 | 0.85 |  |  |  |  |  |  |  | 
3 | CCCCN1CCCC1CNC(=O)c1cc(C#N)c2ccccc2c1OC (centres unmarked) [nafadotride, reference compound] |  |  |  |  | 0 |  |  |  |  |  |  |  | 
4 | N#Cc1cccc(N2CCN(CCCCNC(=O)C3=Cc4ccccc4CC3)CC2)c1 [I-28] |  | 2.1 | 318 | 6.3 | 0.37 | 37±2 | −25 | no effect | crosses the blood-brain barrier | 36.7 | 46.6 | 57.3 | about 0.3 mg·kg−1
